Experimental data reported in patent US20250346564A1 (ARase Therapeutics Inc., priority 2022, published 2025).

Assays:
PARG [1] = molecular target: T1, PARG (Homo sapiens (Human), UniProt Q86W56); assay: PARG TFMU assay (4-(trifluoromethyl)umbelliferone substrate); assay type: biochemical; conditions: PARG 250 pM or 2 nM, 10-point dose response
Description: Example C. Inhibition of PARG TEMU Assay
The ability of the compounds of the Examples to inhibit PARG activity in 4. (trifluoromethyl)umbelliferone (TFMU) assay was determined as described below. PARG inhibitors were added into 384 well plate for a 10-point dose response curve at 1:3 dilutions. TFMU PARG substrate and PARG (250 pM or 2 nM) were then added to the plate to initiate enzymatic reaction. After incubation with the reagent, […] was read. IC50 values were calculated using set control points for 100% inhibition as no enzyme and 0% inhibition 250 pM or 2 nM of PARG enzyme.

PARG [2] = molecular target: T1, PARG; assay: PARG target engagement cellular assay (PAR polymer immunostaining after cisplatin); assay type: cell-based; conditions: HCC1806 cells treated with cisplatin, then compound titration for 1 h; PAR polymer antibody readout
Description: Example a. Inhibition of PARG Target Engagement Cellular Assay
The ability of the compounds of the Examples to inhibit PARG was determined as described below. After treating HCC1806 cells with cisplatin, followed by PARG inhibitor compound titration for 1 h, the cells were fixed in formaldehyde. The cells were permeabilized, blocked, and incubated with antibody against poly (ADP) ribose (PAR) polymer. The cells were then washed and incubated with IR 800 conjugated secondary antibody together with TO-PRO3 iodide nuclear stain. After washing, images of the cells were captured and analyzed on Odyssey CLx instrument and analyzed using LI-COR image studio software.

T1 sequence (Q86W56 whole entry): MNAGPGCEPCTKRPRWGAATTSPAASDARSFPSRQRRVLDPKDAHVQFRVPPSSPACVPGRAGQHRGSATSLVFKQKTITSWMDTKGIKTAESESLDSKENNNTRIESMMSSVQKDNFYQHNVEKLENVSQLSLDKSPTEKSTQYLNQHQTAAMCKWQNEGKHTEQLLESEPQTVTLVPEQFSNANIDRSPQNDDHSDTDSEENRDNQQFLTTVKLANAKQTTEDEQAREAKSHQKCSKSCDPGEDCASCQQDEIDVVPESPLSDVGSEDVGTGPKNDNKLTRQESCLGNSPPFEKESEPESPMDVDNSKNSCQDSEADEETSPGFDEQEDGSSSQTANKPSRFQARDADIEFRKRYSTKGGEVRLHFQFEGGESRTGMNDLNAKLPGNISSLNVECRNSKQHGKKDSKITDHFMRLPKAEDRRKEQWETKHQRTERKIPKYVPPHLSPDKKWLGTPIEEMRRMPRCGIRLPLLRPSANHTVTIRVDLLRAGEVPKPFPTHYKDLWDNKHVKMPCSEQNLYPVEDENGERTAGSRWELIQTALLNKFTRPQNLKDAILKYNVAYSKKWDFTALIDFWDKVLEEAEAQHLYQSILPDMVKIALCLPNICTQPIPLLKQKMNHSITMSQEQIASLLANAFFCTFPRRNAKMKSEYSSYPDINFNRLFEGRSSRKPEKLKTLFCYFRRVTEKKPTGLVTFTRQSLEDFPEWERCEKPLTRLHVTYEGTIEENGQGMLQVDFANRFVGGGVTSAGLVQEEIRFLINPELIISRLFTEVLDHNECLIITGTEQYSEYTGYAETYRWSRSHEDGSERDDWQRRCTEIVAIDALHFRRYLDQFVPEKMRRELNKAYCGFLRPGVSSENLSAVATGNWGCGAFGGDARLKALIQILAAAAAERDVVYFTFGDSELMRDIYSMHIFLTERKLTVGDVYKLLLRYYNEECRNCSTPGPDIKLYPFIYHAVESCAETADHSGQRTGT

Row | IC50 (PARG [1]) [nM] | IC50 (PARG [2]) [µM] | SMILES
1 | 500 to 5000 | > 100 | CCn1c(=O)c2cc(S(=O)(=O)N[C@@]3(C)C[C@H]3CCO)ccc2n(CC)c1=O (single isomer, unassigned) [Example 15A]
2 | ≥ 5000 | > 100 | O=C(O)/C=C/Cn1c(=O)[nH]c2ccc(S(=O)(=O)NC34CC(C3)C4)cc2c1=O [Example 2, (2E)-4-[6-({bicyclo[1.1.1]pentan-1-yl}sulfamoyl)-2,4-dioxo-1H-quinazolin-3-yl]but-2-enoic Acid]
3 | < 50 | < 10 | CC(C)C(=O)N1CCN(c2cc(S(=O)(=O)NC3(C)COC3)cc3c2cnn3-c2nnc(C(F)F)s2)CC1 [Example 6, 1-[5-(difluoromethyl)-1,3,4-thiadiazol-2-yl]-N-(3-methyloxetan-3-yl)-4-[4-(2-methylpropanoyl)piperazin-1-yl]indazole-6-sulfonamide]
4 | 500 to 5000 | > 100 | NC(=O)/C=C/Cn1c(=O)[nH]c2ccc(S(=O)(=O)NC34CC(C3)C4)cc2c1=O [Example 3, (2E)-4-[6-({bicyclo[1.1.1]pentan-1-yl}sulfamoyl)-2,4-dioxo-1H-quinazolin-3-yl]but-2-enamide]
5 | 500 to 5000 | 10 to 100 | CCn1c(=O)c2cc(S(=O)(=O)NC3(C#N)COC3)ccc2n(CC)c1=O [Example 10, N-(3-cyanooxetan-3-yl)-1,3-diethyl-2,4-dioxoquinazoline-6-sulfonamide]
6 | 500 to 5000 | > 100 | COC(=O)/C=C/CCn1c(=O)[nH]c2ccc(S(=O)(=O)NC3(C)COC3)cc2c1=O [Example 12, methyl (E)-5-(6-(N-(3-methyloxetan-3-yl)sulfamoyl)-2,4-dioxo-1,4-dihydroquinazolin-3(2H)-yl)pent-2-enoate]
7 | 500 to 5000 | > 100 | CCn1c(=O)c2cc(S(=O)(=O)NC3(C(F)F)COC3)ccc2n(CC)c1=O [Example 18, N-(3-(difluoromethyl)oxetan-3-yl)-1,3-diethyl-2,4-dioxo-1,2,3,4-tetrahydroquinazoline-6-sulfonamide]
8 | 50 to 500 | 10 to 100 | CCn1c(=O)c2cc(S(=O)(=O)N[C@@]3(C)CO[C@H]3C)ccc2n(CC)c1=O (single isomer, unassigned) [Example 17A]
9 | 500 to 5000 | 10 to 100 | COC(=O)/C=C/Cn1c(=O)[nH]c2ccc(S(=O)(=O)NC3(C)COC3)cc2c1=O [Example 9, methyl (2E)-4-{6-[(3-methyloxetan-3-yl)sulfamoyl]-2,4-dioxo-1H-quinazolin-3-yl}but-2-enoate]
10 | 50 to 500 | 10 to 100 | CCn1c(=O)c2cc(S(=O)(=O)NC3(C)COC3)ccc2n(CC)c1=O [Example 4, 1,3-diethyl-N-(3-methyloxetan-3-yl)-2,4-dioxoquinazoline-6-sulfonamide]
11 | 50 to 500 | 10 to 100 | CCn1c(=O)c2cc(S(=O)(=O)NC3(CF)COC3)ccc2n(CC)c1=O [Example 20, 1,3-diethyl-N-(3-(fluoromethyl)oxetan-3-yl)-2,4-dioxo-1,2,3,4-tetrahydroquinazoline-6-sulfonamide]
12 | ≥ 5000 | > 100 | CCn1c(=O)c2cc(S(=O)(=O)NC3(C)CCC3)ccc2n(CC)c1=O [Example 7, 1,3-diethyl-N-(1-methylcyclobutyl)-2,4-dioxoquinazoline-6-sulfonamide]
13 | 500 to 5000 | > 100 | CCn1c(=O)c2cc(S(=O)(=O)NC3(C)CSC3)ccc2n(CC)c1=O [Example 5, 1,3-diethyl-N-(3-methylthietan-3-yl)-2,4-dioxoquinazoline-6-sulfonamide]
14 | 500 to 5000 | > 100 | CNC(=O)/C=C/Cn1c(=O)[nH]c2ccc(S(=O)(=O)NC3(C)COC3)cc2c1=O [Example 19, (E)-N-methyl-4-(6-(N-(3-methyloxetan-3-yl)sulfamoyl)-2,4-dioxo-1,4-dihydroquinazolin-3(2H)-yl) but-2-enamide]
15 | ≥ 5000 | > 100 | CCOC(=O)/C=C/Cn1c(=O)[nH]c2ccc(S(=O)(=O)NC34CC(C3)C4)cc2c1=O [Example 1, ethyl (2E)-4-[6-({bicyclo[1.1.1]pentan-1-yl}sulfamoyl)-2,4-dioxo-1H-quinazolin-3-yl]but-2-enoate]
16 | ≥ 5000 | > 100 | CCn1c(=O)c2cc(S(=O)(=O)N[C@@]3(C)C[C@H]3CC#N)ccc2n(CC)c1=O (racemic) [Example 16, N-((1SR,2SR)-2-(cyanomethyl)-1-methylcyclopropyl)-1,3-diethyl-2,4-dioxo-1,2,3,4-tetrahydroquinazoline-6-sulfonamide]

Row | IC50 (PARG [1]) [nM] | IC50 (PARG [2]) [µM] | SMILES
17 | < 50 | 10 to 100 | Cc1ncc(Cn2c(=O)c3cc(S(=O)(=O)NC4(C)COC4)ccc3n(Cc3sc(C)nc3C)c2=O)s1 [Example 14, 1-((2,4-dimethylthiazol-5-yl)methyl)-N-(3-methyloxetan-3-yl)-3-((2-methylthiazol-5-yl)methyl)-2,4-dioxo-1,2,3,4-tetrahydroquinazoline-6-sulfonamide]
18 | ≥ 5000 | > 100 | CC[C@H]1C[C@@]1(C)NS(=O)(=O)c1ccc2c(c1)c(=O)n(CC)c(=O)n2CC (single isomer, unassigned) [Example 13D]
19 | < 50 |  | CC(C)C(=O)N1CCN(c2cc(S(=O)(=O)NC3(C)COC3)cc3c2cnn3-c2nnc(C(F)F)s2)C[C@@H]1C (single isomer, unassigned) [Example 79]
20 | ≥ 5000 |  | CCn1c(=O)c2cc(S(=O)(=O)N[C@@]3(C#N)C[C@@H]3CO)ccc2n(CC)c1=O (single isomer, unassigned) [Example 78]
21 | 50 to 500 |  | CC1(NS(=O)(=O)c2ccc3cnn(-c4nnc(C(F)F)s4)c3c2)COC1 [Example 23, 1-(5-(difluoromethyl)-1,3,4-thiadiazol-2-yl)-N-(3-methyloxetan-3-yl)-1H-indazole-6-sulfonamide]
22 | 50 to 500 |  | Cc1ncc(Cn2c(=O)[nH]c3ccc(S(=O)(=O)NC4(CF)COC4)cc3c2=O)s1 [Example 28A, N-(3-(fluoromethyl)oxetan-3-yl)-3-((2-methylthiazol-5-yl)methyl)-2,4-dioxo-1,2,3,4-tetrahydroquinazoline-6-sulfonamide]
23 | < 50 |  | Cc1nnc(-n2ncc3c(N4CCN(C(=O)C(C)C)CC4)cc(S(=O)(=O)NC4(CF)COC4)cc32)s1 [Example 42, N-(3-(fluoromethyl)oxetan-3-yl)-4-(4-isobutyrylpiperazin-1-yl)-1-(5-methyl-1,3,4-thiadiazol-2-yl)-1H-indazole-6-sulfonamide]
24 | < 50 |  | N#CC1(NS(=O)(=O)c2cc(N3CCN(C(=O)C4CCCC4)CC3)c3cnn(-c4nnc(C(F)F)s4)c3c2)COC1 [Example 40, N-(3-cyanooxetan-3-yl)-4-(4-(cyclopentanecarbonyl)piperazin-1-yl)-1-(5-(difluoromethyl)-1,3,4-thiadiazol-2-yl)-1H-indazole-6-sulfonamide]
25 |  | > 100 | CCn1c(=O)c2cc(S(=O)(=O)NC3(C)CCOC3)ccc2n(CC)c1=O (centres unmarked) [Example 8, 1,3-diethyl-N-(3-methyloxolan-3-yl)-2,4-dioxoquinazoline-6-sulfonamide]
26 | < 50 |  | CC(C)C(=O)N1CCN(c2cc(S(=O)(=O)NC3(C)COC3)cc3c2cnn3-c2nncs2)CC1 [Example 46, 4-(4-isobutyrylpiperazin-1-yl)-N-(3-methyloxetan-3-yl)-1-(1,3,4-thiadiazol-2-yl)-1H-indazole-6-sulfonamide]
27 | 500 to 5000 |  | CC1(NS(=O)(=O)c2cc(Cl)c3cnn(-c4nnc(C(F)F)s4)c3c2)CC1CCO (centres unmarked) [Example 65, 4-chloro-1-(5-(difluoromethyl)-1,3,4-thiadiazol-2-yl)-N-(2-(2-hydroxyethyl)-1-methylcyclopropyl)-1H-indazole-6-sulfonamide]
28 | ≥ 5000 |  | Cn1ncc2ccc(S(=O)(=O)NC3(C)COC3)cc21 [Example 72, 1-methyl-N-(3-methyloxetan-3-yl)-1H-indazole-6-sulfonamide]
29 | < 50 |  | CC(C)C(=O)N1CCN(c2cc(S(=O)(=O)NC3(C)COC3)cc3c2cnn3-c2nnc(CS(C)(=O)=O)s2)CC1 [Example 31, 4-(4-isobutyrylpiperazin-1-yl)-N-(3-methyloxetan-3-yl)-1-(5-((methylsulfonyl)methyl)-1,3,4-thiadiazol-2-yl)-1H-indazole-6-sulfonamide]
30 | 500 to 5000 |  | CCn1c(=O)c2cc(S(=O)(=O)N[C@@]3(C#N)CO[C@H]3C)ccc2n(CC)c1=O (single isomer, unassigned) [Example 61]
31 | < 50 |  | N#CC1(NS(=O)(=O)c2cc(N3CCN(C(=O)C4CC4)CC3)c3cnn(-c4nnc(C(F)F)s4)c3c2)COC1 [Example 39, N-(3-cyanooxetan-3-yl)-4-(4-(cyclopropanecarbonyl)piperazin-1-yl)-1-(5-(difluoromethyl)-1,3,4-thiadiazol-2-yl)-1H-indazole-6-sulfonamide]
32 | < 50 |  | N#CC1(NS(=O)(=O)c2cc(N3CCN(C(=O)N4CCCC4)CC3)c3cnn(-c4nnc(C(F)F)s4)c3c2)COC1 [Example 38, N-(3-cyanooxetan-3-yl)-1-(5-(difluoromethyl)-1,3,4-thiadiazol-2-yl)-4-(4-(pyrrolidine-1-carbonyl)piperazin-1-yl)-1H-indazole-6-sulfonamide]
